What was measured:
in vitro [1] = type: in vitro ADME; settings: plasma
Description: (§1) Preparation of Solutions: Stock solution (10 mM) of each of test compounds was prepared in DMSO. The stock solution for each compound was then diluted into 100 μM with acetonitrile.
Plasma Incubations: Plasma incubations were conducted in duplicate in 96-well plate at 37° C. Plasma was prewarmed in a total volume of 198 μL for 5 min at 37° C., then added 2 μL of 100 μM test compound into an incubation well containing plasma, pipette-mixed to achieve a homogenous suspension and immediately transferred 20 μL incubate as a 0 min sample to wells in a “Quenching” plate followed by adding 200 μL of acetonitrile with metolazone as internal standard (IS) and pipette-mixing. At 2, 5, 60, and 90 min, pipette-mixed the incubate and serially transfer samples of 20 μL incubate per time point to wells in a separate “Quenching” plate followed by adding 200 μL of acetonitrile with metolazone as IS and pipette-mixing.
(§2) Sample Analysis: The 96-well plate was centrifuged at 6000 g for 10 min. The supernatant was injected onto the LC-MS/MS system for analysis.

in vitro [2] = type: in vitro ADME; settings: microsomes, pH 7.4
Description: as §1
(§3) Microsome Incubations: Incubation mixtures were prepared in a total volume of 200 μL with final component concentrations as follows: 0.1M PBS (pH 7.4), NADPH (2 mM) and liver microsomes (0.2 mg/mL) as well as test compound (1 μM) or Molnupiravir (1 μM) as a positive control, wherein the NADPH was added after a 5-min preincubation of all other components at 37° C. Pipette-mixed to achieve a homogenous suspension and immediately transferred 20 μL incubate as a 0 min sample to wells in a “Quenching” plate followed by adding 200 μL of acetonitrile with metolazone as IS and pipette-mixing. At 2, 5, 10, and 45 min, pipette-mixed the incubate and serially transfer samples of 20 μL incubate per time point to wells in a separate “Quenching” plate followed by adding 200 μL of acetonitrile with metolazone as IS and pipette-mixing.
as §2

Microsome stability = type: in vitro ADME, Monkey; settings: monkey, microsomes, pH 7.4
Description: as §1, §3, §2

[3] = tested on: SARS-CoV-2, Hongkong strain; type: in vivo, K18 hACE2 transgenic mice
in vivo = assay: in vivo; set-up: species or system Beagle Dogs; settings: dog, po; for Cmax: Cmax of EX-2/CH2101; for Tmax: Tmax of EX-2/CH2101; for AUC(0-t): AUClast of EX-2/CH2101; for concentration at 0.25 hr / concentration at 0.5 hr / concentration at 1 hr / concentration at 0.083 hr: Plasma concentration of EX-2/CH2101
Description: Example 174: Pharmacokinetic Study of EX-2 (CH2101), Molnupiravir (CH2017) and its Metabolite NHC (CH2018) Following a Single PO Administration of EX-2 (CH2101) or Molnupiravir (CH2017) in Male and Female Beagle Dogs
Both test compounds were prepared in 1% methyl cellulose (400 cps, SIGMA, SLCF9694) solution in purified water.
A total of 6 male+6 female Beagle Dogs, approximately 7-13 kg of bodyweight, were originally purchased from Marshall Biotechnology Co., Ltd. The animals were fasted overnight prior to dosing and food was re-provided after 4 hours post dosing.
The animals were restrained manually, and approximately 1 mL of blood at each time point was collected into pre-cooled EDTA-K2 tubes via cephalic or saphenous veins. Blood samples were centrifuged at 4° C. (4000 rpm. 5 min) to obtain plasma within 30 min after sample collection. All samples were stored at approximately −80° C. until analysis. The backup samples will be discarded after the in vivo experiment has been completed for two months unless requested.

in vitro [4] = settings: African green monkey

## CC(=O)ONc1ccn([C@@H]2O[C@H](CO)[C@@H](O)[C@H]2O)c(=O)n1 [EX-2]
In vitro [1]; dog
  half-life at 1 µM: 79.1 min
In vitro [1]; human
  half-life at 1 µM: 11.6 min
In vitro [1]; monkey
  half-life at 1 µM: 29.3 min
In vitro [1]; mouse
  half-life at 1 µM: 7.4 min
In vitro [1]; rat
  half-life at 1 µM: 87.8 min
In vitro [2]; dog
  half-life at 1 µM: 76.3 min
In vitro [2]; human
  half-life at 1 µM: 33.5 min
In vitro [2]; mouse
  half-life at 1 µM: 16.2 min
In vitro [2]; rat
  half-life at 1 µM: 288 min
Microsome stability
  half-life at 1 µM: 50.8 min
[3]; 14-day study, twice daily days 0-6, CH2101 450 mg/kg PO, Remdesivir 25 mg/kg SC
  Survival proportions: 100%
[3]; 450 mpk PO twice daily
  Antiviral efficacy in vivo (conclusion): optimal antiviral efficacy in vivo
[3]; CH2101 450 mpk PO twice daily days 0-6
  Clinical symptoms (observation): no infection-related clinical symptom was observed
[3]; EX-2/CH2101 450 mpk PO twice daily days 0-6
  Body weights (observation): without notable body weight loss observed
[3]; day 5, plaque assay, mean, twice daily days 0-4, CH2101 450 mpk PO, Remdesivir 25 mpk SC
  Virus titer in lung: 2.64 Log 10 plaque#/g lung
[3]; day 5, CH2101 450 mpk PO, Remdesivir 25 mpk SC
  Virus titer in lung, mean difference vs. group 1 (Vehicle group): 3.31 Log
[3]; twice daily days 0-6, CH2101 450 mg/kg PO, Remdesivir 25 mg/kg SC
  Median survival time: Undefined
In vivo; both sexes, Beagle, 20 mg/kg
  Cmax: 12.8 ng/mL
  Tmax: 15 min
In vivo; both sexes, beagle, 10 mg/kg
  AUC(0-t): 5.07 ng·h/mL
  Cmax: 15.5 ng/mL
  concentration at 0.25 hr: 16 ng/mL
  concentration at 0.5 hr: 10.7 ng/mL
  concentration at 1 hr: 12.2 ng/mL
  Tmax: 26.3 min
In vivo; both sexes, beagle, 20 mg/kg
  AUC(0-t): 5.43 ng·h/mL
  concentration at 0.083 hr: 11.2 ng/mL
  concentration at 0.25 hr: 12.8 ng/mL
  concentration at 0.5 hr: 10.5 ng/mL
  concentration at 1 hr: 11.3 ng/mL
In vivo; both, Beagle, 20 mg/kg, 6 hr
  Plasma concentration of EX-1/NHC/CH2018: 401 ng/mL
In vivo; both, Beagle, 20 mg/kg, 8 hr
  Plasma concentration of EX-1/NHC/CH2018: 138 ng/mL
In vivo; both, Beagle, 20 mg/kg, 24 hr
  Plasma concentration of EX-1/NHC/CH2018: 17.7 ng/mL
In vivo; both, beagle, 20 mg/kg
  AUCmale/female of EX-1/NHC/CH2018: 69.2%
  AUCmale/female of EX-2/CH2101: 96.1%
In vivo; both, beagle, 20 mg/kg, 0.083 hr
  Plasma concentration of EX-1/NHC/CH2018: 148 ng/mL
In vivo; both, beagle, 20 mg/kg, 0.25 hr
  Plasma concentration of EX-1/NHC/CH2018: 2014 ng/mL
In vivo; both, beagle, 20 mg/kg, 0.5 hr
  Plasma concentration of EX-1/NHC/CH2018: 3703 ng/mL
In vivo; both, beagle, 20 mg/kg, 1 hr
  Plasma concentration of EX-1/NHC/CH2018: 6118 ng/mL
In vivo; both, beagle, 20 mg/kg, 2 hr
  Plasma concentration of EX-1/NHC/CH2018: 5958 ng/mL
In vivo; both, beagle, 20 mg/kg, 4 hr
  Plasma concentration of EX-1/NHC/CH2018: 1600 ng/mL
In vivo; female, Beagle, 20 mg/kg
  AUC(0-t): 5.54 ng·h/mL
  Cmax: 13 ng/mL
  Tmax: 15 min
In vivo; female, beagle, 10 mg/kg
  Cmax of EX-2/CH2101: 14.0 ng/mL
  Tmax of EX-2/CH2101: 60 min
  Cmax: 12.2 ng/mL
  concentration at 0.25 hr: 14 ng/mL
  concentration at 1 hr: 12.2 ng/mL
In vivo; female, beagle, 20 mg/kg
  concentration at 0.25 hr: 13 ng/mL
  concentration at 1 hr: 11.3 ng/mL
In vivo; male, Beagle, 20 mg/kg
  AUC(0-t): 5.32 ng·h/mL
  Cmax: 12.5 ng/mL
  Tmax: 15 min
In vivo; male, beagle, 10 mg/kg
  AUC(0-t): 5.07 ng·h/mL
  Cmax: 17.9 ng/mL
  concentration at 0.25 hr: 17.9 ng/mL
  concentration at 0.5 hr: 10.7 ng/mL
  Tmax: 15 min
In vivo; male, beagle, 20 mg/kg
  concentration at 0.083 hr: 11.2 ng/mL
  concentration at 0.25 hr: 12.5 ng/mL
  concentration at 0.5 hr: 10.5 ng/mL
In vitro [4]
  CC50 at 4 days: 18.2 µM
